For four molecules, MIC results are on record in ChEMBL document CHEMBL1158611, “Trichoderins, novel aminolipopeptides from a marine sponge-derived Trichoderma sp., are active against dormant mycobacteria” (2010).

In brackets after ≈: the same amount, converted by molar mass. *1 amine or outer side, *2 acyl side, *3 side chain or, on linkers, in order; H or OH if unused. Where a SMILES comes first, the peptide text is derived from it. [ ]: non-standard residue; d: D form. The star is where a group is joined. X2 = CCC(=O)C[C@@H](O)C[C@@H](C)C[C@H](N[*:1])C(=O)[*:2]; X1 = CCC(=O)/C=C/C[C@@H](C)C[C@H](N[*:1])C(=O)[*:2]; Alaψ(CH2NMeCH2CH2OH) = C[C@@H](CN(C)CCO)N*; Decanoyl(2R-Me) = CCCCCCCC[C@@H](C)C(=O)*; Aib = CC(C)(N)C(=O)O Some results are limits rather than exact numbers.

What all share (type): functional
The subject of test [1] is Mycobacterium tuberculosis. Put plainly: Antimycobacterial activity against Mycobacterium tuberculosis H37Rv under dormancy-inducing hypoxic condition.
Test [2] relates to Mycobacterium tuberculosis. Put plainly: Antimycobacterial activity against Mycobacterium tuberculosis H37Rv under aerobic condition.
In test [3] the test system is Mycolicibacterium smegmatis. Put plainly: Antimycobacterial activity against Mycobacterium smegmatis under dormancy-inducing hypoxic condition.
Test [4] deals with Mycolicibacterium smegmatis. Put plainly: Antimycobacterial activity against Mycobacterium smegmatis under aerobic condition.

For orientation: MIC means the lowest concentration found to suppress growth.

For `CCCCCCCC[C@@H](C)C(=O)N1CCC[C@H]1C(=O)N[C@@H](C[C@H](C)C/C=C/C(=O)CC)C(=O)NC(C)(C)C(=O)NC(C)(C)C(=O)N[C@H](C(=O)N[C@H](C(=O)NC(C)(C)C(=O)NC(C)(C)C(=O)N[C@@H](C)CN(C)CCO)C(C)C)[C@@H](C)CC` [TRICHODERIN A1] ({Decanoyl(2R-Me)}-P[X1][Aib][Aib]IV[Aib][Aib]-{Alaψ(CH2NMeCH2CH2OH)}), the MIC is 2 mg/L (≈ 1.75 µM) in test [1], 2 mg/L (≈ 1.75 µM) in test [2], 1.56 mg/L (≈ 1.36 µM) in test [3] and 1.56 mg/L (≈ 1.36 µM) in test [4].

For `CCCCCCCC[C@@H](C)C(=O)N1CCC[C@H]1C(=O)N[C@@H](C[C@H](C)C[C@H](O)CC(=O)CC)C(=O)NC(C)(C)C(=O)NC(C)(C)C(=O)N[C@H](C(=O)N[C@H](C(=O)NC(C)(C)C(=O)NC(C)(C)C(=O)N[C@@H](C)CN(C)CCO)C(C)C)C(C)C` [TRICHODERIN B] ({Decanoyl(2R-Me)}-P[X2][Aib][Aib]VV[Aib][Aib]-{Alaψ(CH2NMeCH2CH2OH)}), the MIC was 0.13 mg/L (≈ 0.113 µM) in test [1], 0.13 mg/L (≈ 0.113 µM) in test [2], 0.63 mg/L (≈ 0.548 µM) in test [3] and 0.63 mg/L (≈ 0.548 µM) in test [4].

Consider `CCCCCCCC[C@@H](C)C(=O)N1CCC[C@H]1C(=O)N[C@@H](C[C@H](C)C[C@H](O)CC(=O)CC)C(=O)NC(C)(C)C(=O)NC(C)(C)C(=O)N[C@H](C(=O)N[C@H](C(=O)NC(C)(C)C(=O)NC(C)(C)C(=O)N[C@@H](C)CN(C)CCO)C(C)C)[C@@H](C)CC` [TRICHODERIN A] ({Decanoyl(2R-Me)}-P[X2][Aib][Aib]IV[Aib][Aib]-{Alaψ(CH2NMeCH2CH2OH)}), for which the MIC is 0.12 mg/L (≈ 0.103 µM) in test [1], 0.12 mg/L (≈ 0.103 µM) in test [2], 0.1 mg/L (≈ 0.0859 µM) in test [3] and 0.1 mg/L (≈ 0.0859 µM) in test [4].

For the molecule `NNC(=O)c1ccncc1` [ISONIAZID], the MIC is over 100 mg/L in test [1], 0.05 mg/L (≈ 0.365 µM) in test [2], 25 mg/L (≈ 182 µM) in test [3] and 2.5 mg/L (≈ 18.2 µM) in test [4].
